Consider one substance from US4550186A, “Binuclear copper (II) carboxylates formed from amine-carboxyboranes” (Duke University, priority 1983, dated 1985).

One series in a line: Organ weights. It counts as in vivo, rat. The settings on record: for Organ Weight: 14 days 10 mg/Kg/Day, Treated. The source says:
Periodic animal weights were obtained during the experiments and expressed as a percentage of the animal's weight on day 0. After dosing for 14 days with test drugs, selected organs were excised, trimmed of fat and weighed. The organ weights were expressed as a percentage of the total body weight of the animal.

Series [1] addresses deoxyribonucleic acid polymerase. Nature of the series: In vitro deoxyribonucleic acid polymerase activity in isolated nuclei. To be noted: isolated nuclei from Ehrlich ascites cells, read-out: ID50, Deoxyribonucleic acid polymerase activity. The format is biochemical, mouse. The procedure:
(§1) CF1 male mice (~30 g) were implanted with 2×10^6 Ehrlich ascites tumor cells, intraperitoneally on Day 0. Compound I was suspended by homogenation in 0.05% polysorbate.80-water and administered intraperitoneally at 10 and 20 mg/kg for 9 days to determine its effectiveness for inhibition of tumor growth. Mice were sacrificed on Day 10, and the ascites fluid was collected from the peritoneal cavity. The volume and ascrit (packed cell volume) were determined for each animal and the percent inhibition of tumor growth was calculated. For the metabolic studies, mice were treated on Days 8 and 9 with 10 mg/kg of Compound I, intraperitoneally. The animal was sacrificed on Day 10 and the ascites fluid harvested. The in vitro metabolic studies were performed at 0.25, 0.50 and 1 mmol final concentration of Compound I.
(§2) In vitro and in vivo nuclear deoxyribonucleic acid polymerase activity was determined on isolated Ehrlich ascites cell nuclei. The incubation was that described by Sawada et al [Can. Res., 34, 3341 (1974)] except that [methyl-^3 H] deoxythymidine triphosphate (82.4 Ci/mmol) was used. The acid insoluble nucleic acid was collected on GF/F filters and counted. Nuclear ribonucleic acid polymerase activities were determined on enzymes isolated from nuclei. […] The acid insoluble ribonucleic acid was collected on nitrocellulose filters and counted.

The target of series [2] is T1, carbamyl phosphate synthetase (Mus musculus, UniProt B2RQC6).
T1 construct: CPSase II domain of CAD; ornithine transcarbamylase used as coupling enzyme
In words: In vitro carbamyl phosphate synthetase activity. The format is biochemical. To be noted: 0.25 to 1.0 mM. Here is the method: as §1, with “The animal was sacrificed on Day 10 and the ascites fluid harvested. The in vitro metabolic studies were performed at 0.25, 0.50 and 1 mmol final concentration of Compound I.” left out
(§3) Carbamyl phosphate synthetase activity was determined using the reaction medium of Kalman et al [Am. […] Citrulline formed from ornithine was measured at 490 nm by the method of Archibald [J. Biol. Chem., 156, 121 (1944)]. […] The ^14 CO2 generated in 15 min was trapped in 1M KOH and counted. Thymidylate synthetase activity was determined using a post-mitochondrial supernatant (9000 g×10 min) and 5 μCi of 5-^3 H-deoxyuridine monophosphate (14 Ci/mmol) according to the method of Kampf et al [ J. Med. Chem., 19, 903 (1976)]. ^14 C-Formate incorporation into purines was determined by the method of Spassova et al [Biochem. Pharmacol., 25, 923 (1976)] using 0.5 μCi of ^14 C-formic acid (52.0 mCi/mmol). […] The Rf value for xanthine monophosphate was scraped and counted. […]

In series [3] the target is T2, orotidine monophosphate decarboxylase (Mus musculus, UniProt P13439).
T2 construct: OMP decarboxylase domain of UMP synthase
Nature of the series: In vitro orotidine monophosphate decarboxylase activity. It counts as biochemical. The settings on record: 0.25 to 1.0 mM. Here is the method:
as §1, with “The animal was sacrificed on Day 10 and the ascites fluid harvested. The in vitro metabolic studies were performed at 0.25, 0.50 and 1 mmol final concentration of Compound I.” left out
as §3

Series [4] concerns aspartate transcarbamylase. Nature of the series: In vivo aspartate transcarbamylase activity. The arrangement: species or system mouse. Here is the method: as §1, with “The animal was sacrificed on Day 10 and the ascites fluid harvested. The in vitro metabolic studies were performed at 0.25, 0.50 and 1 mmol final concentration of Compound I.” left out
as §3

Series [5] has as its system Ehrlich ascites lysate protein synthesis. Nature of the series: Initiation/elongation of Ehrlich ascites lysate protein synthesis. The format is biochemical, mouse. To be noted: compared with pyrocatechol violet and emetine. Here is the method: An in vitro method was used to determine if compound I was an initiation or an elongation inhibitor of Ehrlich ascites lysate protein synthesis by comparing inhibition with known standards, pyrocateochol violet and emetine, using 1 μCi ^3 H-leucine (24.7 Ci/mmol). The reaction medium was spotted on Whatman #1 filter paper disks, which after drying were treated for 10 min in boiling 5% trichloroacetic acid, for 10 min in cold 5% trichloroacetic acid and washed with cold 5% trichloroacetic acid, ether/ethanol (4:1) and ether. The disks were dried and counted.

For series [6], the system named is deoxyribonucleic acid polymerase. In words: In vivo nuclear deoxyribonucleic acid polymerase activity. The arrangement: species or system mouse. The procedure:
as §1, §2

Series [7] has as its target T3, aspartate carbamyl transferase (Mus musculus, UniProt B2RQC6).
T3 construct: ATCase domain of CAD
In words: In vitro aspartate carbamyl transferase activity. The format is biochemical. The settings on record: 0.25 to 1.0 mM. Here is the method:
as §1, with “The animal was sacrificed on Day 10 and the ascites fluid harvested. The in vitro metabolic studies were performed at 0.25, 0.50 and 1 mmol final concentration of Compound I.” left out
as §3

Where [8] appears, read: 10 mg/kg/day I.P. on Days 8 and 9.

T2 sequence (P13439 whole entry, the tested form may be a part): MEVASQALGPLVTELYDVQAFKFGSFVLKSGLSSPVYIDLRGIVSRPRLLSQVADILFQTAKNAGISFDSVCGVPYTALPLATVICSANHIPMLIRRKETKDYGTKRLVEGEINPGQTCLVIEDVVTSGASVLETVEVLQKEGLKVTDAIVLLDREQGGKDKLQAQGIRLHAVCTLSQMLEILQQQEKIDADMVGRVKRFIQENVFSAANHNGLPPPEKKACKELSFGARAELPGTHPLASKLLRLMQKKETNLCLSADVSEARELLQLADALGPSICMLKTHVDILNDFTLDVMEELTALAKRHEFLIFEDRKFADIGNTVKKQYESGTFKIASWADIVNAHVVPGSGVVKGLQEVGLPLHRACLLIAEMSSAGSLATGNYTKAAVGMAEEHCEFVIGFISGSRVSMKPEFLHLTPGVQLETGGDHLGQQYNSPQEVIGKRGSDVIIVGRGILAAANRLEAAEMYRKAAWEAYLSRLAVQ
T3 sequence (B2RQC6 2-2225): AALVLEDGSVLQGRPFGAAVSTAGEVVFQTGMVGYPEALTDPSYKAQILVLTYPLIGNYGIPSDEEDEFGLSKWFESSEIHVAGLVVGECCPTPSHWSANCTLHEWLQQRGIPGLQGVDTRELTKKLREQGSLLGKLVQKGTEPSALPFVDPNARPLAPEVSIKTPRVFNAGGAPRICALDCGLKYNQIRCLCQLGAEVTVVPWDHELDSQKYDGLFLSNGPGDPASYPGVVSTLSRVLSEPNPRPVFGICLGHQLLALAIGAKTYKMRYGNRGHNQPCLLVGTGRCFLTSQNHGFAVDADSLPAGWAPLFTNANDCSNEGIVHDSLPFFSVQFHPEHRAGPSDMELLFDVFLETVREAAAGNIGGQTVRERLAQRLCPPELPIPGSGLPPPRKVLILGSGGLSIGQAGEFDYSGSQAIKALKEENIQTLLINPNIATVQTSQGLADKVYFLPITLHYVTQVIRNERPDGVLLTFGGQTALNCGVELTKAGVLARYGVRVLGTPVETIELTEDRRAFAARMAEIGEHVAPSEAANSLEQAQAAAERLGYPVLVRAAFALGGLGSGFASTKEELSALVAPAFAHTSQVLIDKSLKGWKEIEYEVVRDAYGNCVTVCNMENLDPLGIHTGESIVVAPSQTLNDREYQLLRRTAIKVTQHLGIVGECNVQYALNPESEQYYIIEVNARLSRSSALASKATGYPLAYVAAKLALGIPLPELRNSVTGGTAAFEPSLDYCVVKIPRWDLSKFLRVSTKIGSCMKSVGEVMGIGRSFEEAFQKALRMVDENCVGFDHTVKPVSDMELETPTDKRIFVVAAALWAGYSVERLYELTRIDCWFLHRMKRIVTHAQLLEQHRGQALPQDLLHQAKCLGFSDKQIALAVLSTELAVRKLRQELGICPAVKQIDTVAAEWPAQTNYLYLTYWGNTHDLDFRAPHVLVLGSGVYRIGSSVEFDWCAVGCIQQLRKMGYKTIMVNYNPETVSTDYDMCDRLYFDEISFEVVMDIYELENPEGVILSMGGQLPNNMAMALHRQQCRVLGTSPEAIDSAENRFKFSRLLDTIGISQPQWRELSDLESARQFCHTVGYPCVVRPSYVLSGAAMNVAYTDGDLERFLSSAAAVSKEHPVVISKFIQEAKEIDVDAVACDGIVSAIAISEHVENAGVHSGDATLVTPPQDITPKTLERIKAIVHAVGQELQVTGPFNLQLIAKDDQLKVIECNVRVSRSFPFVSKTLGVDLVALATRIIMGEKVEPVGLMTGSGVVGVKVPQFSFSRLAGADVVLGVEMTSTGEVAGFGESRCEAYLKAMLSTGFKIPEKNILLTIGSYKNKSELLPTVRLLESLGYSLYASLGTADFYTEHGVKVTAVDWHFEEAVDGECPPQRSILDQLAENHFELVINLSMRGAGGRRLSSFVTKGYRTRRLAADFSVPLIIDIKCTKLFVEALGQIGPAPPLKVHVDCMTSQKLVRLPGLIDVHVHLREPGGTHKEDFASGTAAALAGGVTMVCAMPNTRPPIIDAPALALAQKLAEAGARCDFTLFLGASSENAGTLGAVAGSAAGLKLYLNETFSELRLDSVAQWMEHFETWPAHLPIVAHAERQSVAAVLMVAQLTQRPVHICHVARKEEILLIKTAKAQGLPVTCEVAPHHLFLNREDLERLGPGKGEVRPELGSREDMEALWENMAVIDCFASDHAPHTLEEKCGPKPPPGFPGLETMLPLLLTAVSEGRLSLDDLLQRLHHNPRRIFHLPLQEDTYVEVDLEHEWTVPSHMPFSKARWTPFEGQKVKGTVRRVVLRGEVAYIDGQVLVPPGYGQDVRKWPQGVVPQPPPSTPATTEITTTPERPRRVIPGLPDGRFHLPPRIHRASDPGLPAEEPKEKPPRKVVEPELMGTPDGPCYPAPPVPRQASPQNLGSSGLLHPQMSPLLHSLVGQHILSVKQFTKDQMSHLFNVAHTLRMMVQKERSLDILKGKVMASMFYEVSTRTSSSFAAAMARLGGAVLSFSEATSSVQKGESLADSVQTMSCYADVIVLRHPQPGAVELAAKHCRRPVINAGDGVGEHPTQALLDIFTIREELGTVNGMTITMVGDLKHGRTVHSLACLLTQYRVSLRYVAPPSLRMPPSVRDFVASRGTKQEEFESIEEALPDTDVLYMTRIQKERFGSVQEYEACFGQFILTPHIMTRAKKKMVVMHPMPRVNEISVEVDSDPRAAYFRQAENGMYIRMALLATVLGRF
T1 sequence (B2RQC6 2-2225): as above

Consider “{Cu[(CH3)3 N.BH2 CO2 ]2.(CH3)3 N.BH2 COOH} [Compound I]”, for which, in “Organ weights” (after drug administration), the Adrenal weights entry is on record as “not altered”. Also, the “Organ Weight” value in “Organ weights” (rat Adrenal) is given as 0.031 gm; in “Organ weights” (rat Brain), 1.666 gm; in “Organ weights” (rat Chyme), 5.9333 gm; in “Organ weights” (rat Feces), 8.633 gm; in “Organ weights” (rat Heart), 1.021 gm; in “Organ weights” (rat Kidney), 2.167 gm. The “Organ Weight” value in “Organ weights” (rat Large Intestine) worked out at 4.233 gm; in the series “Organ weights” (rat Liver), 10.600 gm; in the series “Organ weights” (rat Lung), 1.933 gm; in “Organ weights” (rat Small Intestine), 6.433 gm; in the series “Organ weights” (rat Spleen), 0.501 gm; in the series “Organ weights” (rat Stomach), 1.766 gm. Also, in series [1], the IC50 amounted to 454 µM. Moreover, the “carbamyl phosphate synthetase inhibition” value in series [2] was “not inhibited”. For the same substance, the “orotidine monophosphate decarboxylase inhibition” value in series [3] was “not inhibited”. The “Aspartate carbamyl transferase activity suppressed” value in series [4] came out at 11%. In series [4] (setting [8]), this substance registered an Aspartate transcarbamylase activity of 89 ± 8 % Control. Moreover, the “inhibition of protein synthesis of Ehrlich ascites lysates (initiation vs elongation)” value in series [5] is “lag of several minutes before inhibition is observed”. The “Nuclear deoxyribonucleic acid polymerase activity reduced” value in series [6] is on record as 62%. Also, the “Deoxyribonucleic acid polymerase activity” value in series [6] (setting [8]) worked out at 38 ± 5 % Control. Moreover, the “aspartate carbamyl transferase inhibition” value in series [7] is given as “not inhibited”.
